Tests used:
[1] = tested on: fatty acid uptake complex components; test: Transcript levels of fatty acid uptake complex components by semi-quantitative RT-PCR in HepG2 cells; assay type: cell-based, human; conditions: after 1 h of treatment, UDCA-LPE 50 µM (Fig. 6)
Excerpt: The following forward and reverse primers (Sigma) were used for RT-PCR: iPLA2ß, [NT] (SEQ ID NO: 1) and [NT] (SEQ ID NO: 2); CD36, [NT] (SEQ ID NO: 3) and [NT] (SEQ ID NO: 4); […] (SEQ ID NO: 5) and [NT] (SEQ ID NO: 6); and caveolin-1, [NT] (SEQ ID NO: 7) and reverse [NT] (SEQ ID NO: 8). The primers for FATP4 and ß-actin (internal control) were the same as those previously used as described in […] et al. Am J Physiol Endocrinol Metab 2011; 301, 785-796.

cytosolic LPC = test: Cytosolic LPC concentration in HepG2 cells; assay type: cell-based, human
Experimental: LPC concentration in cytosolic supernatants was measured as previously described (Kishimoto T et al. Clin. Biochem. 2002; 35: 411-416).

p-JNK1 = test: Cytosolic p-JNK1 levels in HepG2 cells (western blotting); assay type: cell-based, human
Experimental: Immunoblotting was performed according to a standard protocol as set out in Sun Q., et al. Biol Med (Maywood). 2012; 237: 178-185. The following primary antibodies to human proteins were used: mouse a-phosphorylated c-Jun N-terminal kinase 1 (p-JNK1) (88.20; Santa Cruz Biotechnology Inc., Heidelberg, Germany) at 1:500; mouse a-CD36 (1.BB.344; Santa Cruz Biotechnology Inc.) at 1:200; rabbit a-iPLA2ß (558-588; Abcam) at 1:500; mouse a-FABPPM (331-430; Abnova, Heidelberg, Germany) at 1:1,000; mouse a-FATP4 (1F4-1B10; Abnova) at 1:500; mouse a-caveolin-1 (C20B; Santa Cruz Biotechnology Inc.) at 1:500; mouse a-flotilin1 (F-3; Santa Cruz Biotechnology Inc.) at 1:500; and mouse a-ß-actin (AC-15; Sigma) at 1:100,000. Anti-mouse or -rabbit HRP (96910 and 107487, respectively; Dianova, Hamburg, Germany) were used at 1:10,000 dilution as secondary antibodies. To estimate the protein concentration a semi-quantitative densitometry was performed as described in Sun Q et al. (loc cit.).

HepG2 cells = test: Cellular steatohepatitis model in HepG2 cells; assay type: cell-based, human; conditions: UDCA-LPE 100 µM, 1 h, before or after 3 h 400 µM oleate:albumin (4:1)
Experimental: To induce steatosis, HepG2 cells were incubated with 400 µM oleate:albumin (4:1) for 3 h. The effect of UDCA-LPE (100 µM; 1 h) relative to PBS (control) was examined by pretreating cells before or after the 3- h fatty acid feeding period (with continuous fatty acid feeding thereafter). Fatty acid loading was examined by staining cells with Oil Red (Sigma) and by immunodetection of triglycerides (ab65336; Abcam, Cambridge, UK). In addition, the release of lactate dehydrogenase (LDH) (11644793001; Roche, Mannheim, Germany) was determined as a measure of apoptosis.

CaCo2 cells = test: Fatty acid influx in CaCo2 cells; assay type: cell-based
[2] = molecular target: T1, four-protein fatty acid uptake complex within the DRM-domain of CaCo2 plasma membranes (Homo sapiens, UniProt O60733); test: Disintegration of the fatty acid uptake complex in CaCo2 cells; assay type: cell-based
T1 construct: the DRM domains of the plasma membrane were isolated from native CaCo2 cells; endogenous in cells; host or cells: CaCo2
T1 sequence (O60733 1-806): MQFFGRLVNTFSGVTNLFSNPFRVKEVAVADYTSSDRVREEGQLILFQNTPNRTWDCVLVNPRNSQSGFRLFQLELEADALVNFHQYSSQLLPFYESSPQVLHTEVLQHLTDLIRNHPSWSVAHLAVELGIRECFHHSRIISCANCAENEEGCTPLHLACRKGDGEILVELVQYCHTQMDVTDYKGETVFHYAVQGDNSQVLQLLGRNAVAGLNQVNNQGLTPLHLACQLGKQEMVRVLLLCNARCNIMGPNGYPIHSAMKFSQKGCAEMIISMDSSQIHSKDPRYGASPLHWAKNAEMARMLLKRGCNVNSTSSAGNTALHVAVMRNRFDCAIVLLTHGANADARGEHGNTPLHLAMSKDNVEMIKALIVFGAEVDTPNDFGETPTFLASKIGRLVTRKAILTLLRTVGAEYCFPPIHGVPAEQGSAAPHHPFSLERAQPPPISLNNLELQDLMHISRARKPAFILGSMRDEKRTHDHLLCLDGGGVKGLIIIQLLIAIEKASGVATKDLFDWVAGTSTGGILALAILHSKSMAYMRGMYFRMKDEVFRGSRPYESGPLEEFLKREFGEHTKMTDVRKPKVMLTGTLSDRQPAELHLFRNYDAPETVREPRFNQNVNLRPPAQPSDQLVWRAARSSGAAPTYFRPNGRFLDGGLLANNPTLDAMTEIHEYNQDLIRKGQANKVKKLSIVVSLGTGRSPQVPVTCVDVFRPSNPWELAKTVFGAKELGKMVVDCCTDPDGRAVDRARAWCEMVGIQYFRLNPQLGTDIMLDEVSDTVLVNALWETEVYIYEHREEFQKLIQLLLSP
Experimental: All other experiments were assessed with CaCo2 cells as described in Ex. 1, mutatis mutandis.

iPLA2ß = molecular target: T2, iPLA2ß (Homo sapiens, UniProt O60733); test: PLA2 activity in DRM-PM fractions of HepG2 cells; assay type: biochemical; conditions: DRM-PM fractions after 1-h treatment; dose-dependent
T2 construct: PLA2 activity in DRM-PM fractions isolated from HepG2 cells; endogenous in cells; host or cells: HepG2 (DRM-PM fraction)
T2 sequence (O60733 1-806): T1 sequence (O60733 1-806)
Experimental: Detergent-resistant PM (DRM-PM) and non-DRM-PM fractions were isolated and characterized as previously described (Pohl J et al. Mol Biol Cell. 2005; 16: 24-31). Subcellular membrane fractions were prepared by centrifugation at 100,000 g for 1 h to obtain homogenate pellets. Nuclear extracts were obtained by centrifugation at 500 g for 5 min. Pellets were washed and resuspended in a buffer solution containing […] (pH 7.4), 100 mM NaCl, and 0.1 mM EDTA (Marzluff WF et al. Meth Cell Biol. 1987; 317-331)). The protein concentration was determined by the Bradford method (Bio- Rad, Munich, Germany).
PLA2 activity (µmoles LPC/mg protein/h) was determined by incubating samples with arachidonoyl thio-PC (62240; Cayman, Tallin, Estonia) for 1 h at 25°C in a Ca2+ -free buffer (Bhat MK et al. Biochim Biophys Act. 1993; 1166: 244-250). The reaction was terminated by adding 5,5-dithio-bis-2-nitrobenzoic acid and the absorbance at 405 nm was measured.

ursodeoxycholatelysophosphatidylethanolamide [UDCA-LPE]
transcript levels of all fatty acid uptake complex components [1]: < 10 % of initial values
IC50 (cytosolic LPC; 30 min treatment (Fig. 7), read-out: suppression of cytosolic LPC (IC50)): 47 µM
cytosolic LPC (cytosolic LPC; UDCA-LPE 50 µM (Fig. 6), before treatment 8.0 ± 1.3): 3.5 ± 0.2 µmol/mg protein
pretreatment time achieving the threshold LPC concentration at which p-JNK1 began to decrease (p-JNK1; > 50 µM UDCA-LPE): > 30 min
pretreatment concentration achieving the threshold LPC concentration at which p-JNK1 began to decrease (p-JNK1; for > 30 min): > 50 µM
fatty acid-induced inflammation (LDH release) (HepG2 cells): prevented or reversed
steatosis (HepG2 cells): prevented or reversed
apical fatty acid influx (CaCo2 cells; CaCo2 cells cultured 21 days (polarized), pretreatment at the apical site): significantly inhibited
inhibition of fatty acid influx (CaCo2 cells; UDCA-LPE 100 µM, 1 h, scrambled siRNA control conditions): > 50%
fatty acid influx kinetics (CaCo2 cells; preincubation of CaCo2 cells): non-competitive inhibition
minimal concentration for disintegration of the complex [2]: 50 µM
exposure time for disintegration of the complex ([2]; 50 µM): 30 min
PLA2 activity (iPLA2ß): suppression of PLA2 activity

Source: EP2929785A1, “A PLA inhibitor for inhibition of fat absorption” (PAT GmbH, priority 2014, dated 2015)
